The text below walks through data of patent publication US20090012168A1, “ADIPONECTION INDUCERS OR SECRETAGOGUES” (AJINOMOTO CO., INC., priority 2004, published 2009).

In one assay the test system is 3T3-L1 cells. Nature of the assay: Adiponectin concentration in culture supernatant of 3T3-L1 cells (LANCE method). In kind it is cell-based, mouse. To be noted: 3T3-L1 cells, 72 hours, amino acid concentration changed in Zero medium; mixture equimolar. How it is done: 3T3-L1 cells were suspended in D-MEM medium containing 10% fetal bovine serum to become 1.5×10^5 cells/mL and seeded. After the incubation in the CO2 incubator at 37° C. for 72 hours, the medium was removed by suction. Then, the medium was exchanged for D-MEM medium containing 10 ug/mL of insulin, 1 uM of dexamethazone, 0.5 mM of IBMX (3-isobutyl-1-methylxanthine) and 10% fetal bovine serum, and further incubated in the CO2 incubator at 37° C. for 48 hours. After removing the medium, it was further exchanged for the medium wherein the concentrations of amino acids were changed, with addition of 10% dialyzed fetal bovine serum (F-0392, by SIGMA), and further incubated in CO2 incubator at 37° C. for 72 hours.
D-MEM medium contains, as amino acids, 30 mg/L of glycine (Gly); 35.6 mg/L of alanine (Ala); 42 mg/L of serine (Ser); 95 mg/L of threonine (Thr); 63 mg/L of cysteine (Cys)/2HCl; 30 mg/L of methionine (Met); 1168 mg/L of glutamine (Gln); 52.8 mg/L of asparagine (Asn); 58.8 mg/L of glutaminic acid (Glu); 106.4 mg/L of asparaginic acid (Asp); 94 mg/L of valine (Val); 105 mg/L of leucine (Leu); 105 mg/L of isoleucine (Ile); 66 mg/L of phenylalanine (Phe); 208 mg/L of tylosin (Tyr)/2Na/2H2O; 16 mg/L of triptophan (Trp); 146 mg/L of lysine (Lys)/HCl; 84 mg/L of arginine (Arg); 42 mg/L of histidine (His)/HCl/H2O; and 46 mg/L of proline (Pro). Regarding the expression of the mediums, for example, Δ Met indicates the medium having the same compositions of vitamins and salts as those of D-MEM medium and said medium wherein one kind of amino acids, methionine (Met), is removed. Full medium indicates the one containing all amino acids, and Zero medium indicates the one removing all amino acids.
Eu (Europium) chelate labeling of anti-mouse adiponectin antibody (AF1119, by R&D Systems) was conducted by using 100 ug of LANCE Eu-W1024-ITC chelate (AD0013 by Perkin Elmer), which is a Eu chelate labeling reagent, to 200 μg of the antibody in accordance with the method described in the manual. Biotin labeling of anti-mouse adiponectin antibody (AF1119, by R&D Systems) was conducted by using 26.8 ug of NHS-Biotin (1418165, Biotin Labeling Kit, by Boehringer Mannheim), which is a biotin labeling reagent, to 100 μg of the antibody in accordance with the method described in the manual.
The amount of adiponectin in the cell culture supernatant was measured as follows. The culture supernatant was diluted tenfold with TBS (Tris-buffered saline; 20 mM Tris-HCl pH7.4, 0.15M NaCl) containing 0.1% bovine serum albumin (BSA), and 10 μL thereof was mixed with 300 ng/mL of the Eu chelate labeled antibody, 300 ng/mL of the biotin labeled antibody and 10 μL of a solution (TBS containing 0.1% BSA) containing 2.5 μg/mL of Streptavidin-APC (AD0201, by Perkin Elmer) on the 384-well plate. After preserving the mixture at room temperature for 2 days, LANCE count was measured by using ARVO-SX multilabel counter (by Perkin Elmer) in accordance with the protocol of the LANCE method. At the same time, the mouse adiponectin preparation (8060-K, by LINCO) was also measured, and the concentration of adiponectin in the culture supernatant was calculated from the calibration curve of the preparation.
In the case of `CC[C@H](C)[C@H](N)C(=O)O` [Ile, isoleucine], the “production of adiponectin as compared with Zero medium (FIG. 1)” value is recorded as “increase of the production of adiponectin was seen”.
The same measure, in the same setting: to `CC(C)C[C@H](N)C(=O)O` [Leu, leucine] belongs “increase of the production of adiponectin was seen”; to `CC(C)[C@H](N)C(=O)O` [Val, valine], “increase of the production of adiponectin was seen”.

The assay is the same for the next values; noted with them: 3T3-L1 culture supernatant after 72 hour incubation; amino acid at fourfold of that in Full medium; average values, N=2; Zero medium 61.
For the compound `C[C@H](N)C(=O)O` [Ala, alanine], the “Concentration of adiponectin in the case of adding one kind of amino acids to Zero medium” value (“Concentration of adiponectin … to Zero medium” below) worked out at 98 ng/mL.
The same measure, in the same setting: to `N[C@@H](CS)C(=O)O` [Cys, cysteine] belongs 83 ng/mL.
As to `NC(=O)CC[C@H](N)C(=O)O` [Gln, glutamine], the “Concentration of adiponectin … to Zero medium” value was determined as 21 ng/mL.
`CC[C@H](C)[C@H](N)C(=O)O` [Ile, isoleucine]: the “Concentration of adiponectin … to Zero medium” value amounted to 119 ng/mL.
On the same count and under the same terms, to `CSCC[C@H](N)C(=O)O` [Met, methionine] belongs 66 ng/mL.
Same read-out and setting: to `CC(C)[C@H](N)C(=O)O` [Val, valine] belongs 83 ng/mL.

Staying with this assay, now noted: amino acid added to Zero medium at fourfold of Full medium, 72 hour incubation.
With `C[C@H](N)C(=O)O` [Ala, alanine], the “concentration of adiponectin in the culture supernatant in mediums to which the amino acid was added” value was “increased”.
In the case of `N[C@@H](CS)C(=O)O` [Cys, cysteine], the “concentration of adiponectin in the culture supernatant in mediums to which the amino acid was added” value is “increased”.
On to `CC[C@H](C)[C@H](N)C(=O)O` [Ile, isoleucine], for which the “concentration of adiponectin in the culture supernatant in mediums to which the amino acid was added” value is “increased”.
On the same count and under the same terms, for `CC(C)[C@H](N)C(=O)O` [Val, valine] the value was “increased”.

Staying with this assay, now noted: amino acid removed from Full medium, 72 hour incubation.
On to `N[C@@H](CS)C(=O)O` [Cys, cysteine], for which the “concentration of adiponectin in mediums without the amino acid” value was “significantly decreased”.
On to `CSCC[C@H](N)C(=O)O` [Met, methionine], for which the “concentration of adiponectin in mediums without the amino acid” value is “significantly decreased”.
`CC(C)[C@H](N)C(=O)O` [Val, valine]: the “concentration of adiponectin in mediums without the amino acid” value is recorded as “significantly decreased”.

For the next assay, the system named is ob/ob mice. Put plainly: Non-fasting blood glucose of ob/ob mice given experimental diets. It is filed as in vivo, mouse. The note with it: experimental diet containing 4%, 17 days. From the text:
(§1) Male ob/ob mice of 5 week old (purchased from Charles River Laboratories Japan, Inc.) were preliminarily fed by a basic diet containing 25% by weight ratio of fats. Then, they were divided into groups so that their body weights and non-fasting blood glucose were the same between the groups. The used basic diet contained 17% by weight of casein and 48% by weight of starch in addition to 25% of lipids. Then, an experimental diet (containing 25% of fats) containing 4% of BCAA (its composition is a mixture of Leu, Ile and Val; their weight ratio is […]=1:1:1), Leu or Ile was provided to them. The control group was given an experimental diet wherein casein was increased by 4% from the basic diet instead of the amino acids (Control Group). As for the composition of each experimental diet, the starch content was adjusted so that each calorie per unit weight became the same. On the 17th day of provision of the experimental diet, their blood was collected and their blood glucose was measured to determine the adiponectin concentration in plasma. […] After extracting RNA, adiponectin mRNA was determined. The blood glucose of a mouse was measured by collecting 6 μL of its blood from the caudal vein and using a Fuji […] system (produced by FUJIFILM Medical Co., Ltd.). The adiponectin concentration in plasma was measured by the following method.
Turning to `CC[C@H](C)[C@H](N)C(=O)O` [Ile, isoleucine], the “non-fasting blood glucose as compared with before the start of providing the diet (FIG. 2)” value is on record as “significantly decreased”.
On the same count and under the same terms, to `CC(C)C[C@H](N)C(=O)O` [Leu, leucine] belongs “significantly decreased”.

A further assay relates to ob/ob mice. Nature of the assay: Adiponectin concentration in plasma of ob/ob mice given experimental diets. It is filed as in vivo, mouse. The note with it: experimental diet containing 4%, 17 days.
Excerpt: as §1, with “As for the composition of each experimental diet, the starch content was adjusted so that each calorie per unit weight became the same.” left out, “method. […] After leaving the mixture at room temperature for 2 days, LANCE count was measured by using ARVO-SX multilabel counter (by Perkin Elmer) in accordance with the protocol of the LANCE method. […]” for “method.”
As for `CC[C@H](C)[C@H](N)C(=O)O` [Ile, isoleucine], the “adiponectin concentration in plasma as compared with before the start of providing the diet (FIG. 3)” value is given as “tended to increase”.
Take `CC(C)C[C@H](N)C(=O)O` [Leu, leucine]: the “adiponectin concentration in plasma as compared with before the start of providing the diet (FIG. 3)” value is recorded as “tended to increase”.

The next assay has as its system adiponectin mRNA. Nature of the assay: Adiponectin mRNA in subcutaneous fats of ob/ob mice given experimental diets. To be noted: 23rd day of 4% diet, amended with β-actin mRNA. In kind it is in vivo, mouse. From the text:
Male ob/ob mice of 5 week old (purchased from Charles River Laboratories Japan, Inc.) were preliminarily fed by a basic diet containing 25% by weight ratio of fats. Then, they were divided into groups so that their body weights and non-fasting blood glucose were the same between the groups. The used basic diet contained 17% by weight of casein and 48% by weight of starch in addition to 25% of lipids. Then, an experimental diet (containing 25% of fats) containing 4% of BCAA (its composition is a mixture of Leu, Ile and Val; their weight ratio is Leu:Ile:Val=1:1:1), Leu or Ile was provided to them. The control group was given an experimental diet wherein casein was increased by 4% from the basic diet instead of the amino acids (Control Group). As for the composition of each experimental diet, the starch content was adjusted so that each calorie per unit weight became the same. On the 17th day of provision of the experimental diet, their blood was collected and their blood glucose was measured to determine the adiponectin concentration in plasma. Further, on the 23rd day after starting the provision of the experimental food, autopsy was conducted, and subcutaneous fats were collected to freeze for preservation. After extracting RNA, adiponectin mRNA was determined. […]
For `CC[C@H](C)[C@H](N)C(=O)O` [Ile, isoleucine], the “amount of adiponectin mRNA in adipose tissues (FIG. 5)” value is “tended to increase”.
With `CC(C)C[C@H](N)C(=O)O` [Leu, leucine], the “amount of adiponectin mRNA in adipose tissues (FIG. 5)” value is “tended to increase”.
